{"source": "patent US4983613A", "about": "“Isoquinoline acetic acids and acetyl carbamates useful as aldose reductase inhibitors” (American Home Products Corporation, priority 1989, dated 1991)", "key": {"[1]": {"target": "T1, aldose reductase (Bos taurus, UniProt P16116)", "T1 construct": "in the preparation of the enzyme from bovine lens; from tissue; host or cells: bovine lens", "experiment": "in vitro inhibition of aldose reductase (modified Hayman and Kinoshita procedure, enzyme from bovine lens)", "type": "biochemical", "conditions": "for inhibition at 10 µM: 10^-5 M; for inhibition at 1 µM: 10^-6 M; for inhibition at 0.04 µM: 4 × 10^-8 M; for inhibition at 0.1 µM: 10^-7 M", "procedure": "(c) The polyol determination was performed by a modification of the procedure of M. Kraml and L. Cosyns, Clin. Biochem., 2,373 (1969). Only two minor reagent changes were made: (a) The rinsing mixture was an aqueous 5% (w/v) trichloroacetic acid solution and (b) the stock solution was prepared by dissolving 25 mg of dulcitol in 100 ml of an aqueous trichloroacetic acid solution. [N.B.: For each experiment the average value found in the tissue from rats fed the glucose diet was subtracted from the individual values found in the corresponding tissue in galactose-fed rats to obtain the amount of polyol accumulated.] The aldose reductase inhibiting effects of the compounds of formula (I) were also tested by employing an in vitro testing procedure similar to that described by S. Hayman and J. H. Kinoshita, J. Biol. Chem., 240,877 (1965). In the present case the procedure of Hayman and Kinoshita was modified in that the final chromatography step was omitted in the preparation of the enzyme from bovine lens. […] The figures under L and N represent the percentage decrease of dulcitol accumulation in the tissues of the lens and sciatic nerve, respectively, for treated rats as compared to untreated rats."}, "[2]": {"system": "dulcitol accumulation in lens", "experiment": "in vivo lowering of dulcitol accumulation in lens of galactosemic rats", "parameters": "species or system rat (Sprague-Dawley)", "conditions": "in diet, four days", "excerpt": "(§1) The aldose reductase inhibiting property of the compounds of this invention and the utilization of the compounds in preventing, diminishing and alleviating diabetic complications are demonstrable in experiments using galactosemic rats, see Dvornik et al., Science, 182, 1146 (1973). Such experiments are exemplified hereinbelow after the listing of the following general comments pertaining to these experiments:\n(§2) (a) Four or more groups of six male rats, 50-70 g, Sprague-Dawley strain, were used. The first group, the control group, was fed a mixture of laboratory chow (Rodent Laboratory Chow, Purina) and glucose at 20% (w/w %) concentration. The untreated galactosemic group was fed a similar diet in which galactose is substituted for glucose. The third group was fed a diet prepared by mixing a given amount of the test compound with the galactose containing diet. The concentration of the galactose in the diet of the treated groups was the same as that for the untreated galactosemic group.\n(§3) (b) After four days, the animals were killed by euthanization. The lenses were removed from the eyes and weighed. The sciatic nerves were dissected as completely as possible and weighed. Both tissues when frozen can be kept up to two weeks before being analyzed for dulcitol.\n(c) The polyol determination was performed by a modification of the procedure of M. Kraml and L. Cosyns, Clin. Biochem., 2,373 (1969). Only two minor reagent changes were made: (a) The rinsing mixture was an aqueous 5% (w/v) trichloroacetic acid solution and (b) the stock solution was prepared by dissolving 25 mg of dulcitol in 100 ml of an aqueous trichloroacetic acid solution. [N.B.: For each experiment the average value found in the tissue from rats fed the glucose diet was subtracted from the individual values found in the corresponding tissue in galactose-fed rats to obtain the amount of polyol accumulated.] […]"}, "[3]": {"system": "dulcitol accumulation in sciatic nerve", "experiment": "in vivo lowering of dulcitol accumulation in sciatic nerve of galactosemic rats", "parameters": "species or system rat (Sprague-Dawley)", "conditions": "in diet, four days", "excerpt": "as §1, §2, §3\n(c) The polyol determination was performed by a modification of the procedure of M. Kraml and L. Cosyns, Clin. Biochem., 2,373 (1969). Only two minor reagent changes were made: (a) The rinsing mixture was an aqueous 5% (w/v) trichloroacetic acid solution and (b) the stock solution was prepared by dissolving 25 mg of dulcitol in 100 ml of an aqueous trichloroacetic acid solution. [N.B.: For each experiment the average value found in the tissue from rats fed the glucose diet was subtracted from the individual values found in the corresponding tissue in galactose-fed rats to obtain the amount of polyol accumulated.] The aldose reductase inhibiting effects of the compounds of formula (I) were also tested by employing an in vitro testing procedure similar to that described by S. Hayman and J. H. Kinoshita, J. Biol. Chem., 240,877 (1965). In the present case the procedure of Hayman and Kinoshita was modified in that the final chromatography step was omitted in the preparation of the enzyme from bovine lens.\nThe figures under L and N represent the percentage decrease of dulcitol accumulation in the tissues of the lens and sciatic nerve, respectively, for treated rats as compared to untreated rats."}}}
{"compound": "COC(=O)NC(=O)CC1C(=O)N(C)C(=O)c2ccc(Cl)cc21", "note": "(stereo not shown) [6Cl, H, CH3, NHCO2 CH3, [(6-chloro-1,2,3,4-tetrahydro-2-methyl-1,3-dioxo-4-isoquinolinyl)acetyl]carbamic acid methyl ester]", "values": [{"measurement": "inhibition at 10 µM", "setting": "[1]", "value": 64.5, "unit": "%"}, {"measurement": "inhibition at 1 µM", "setting": "[1]", "value": 26.6, "unit": "%"}, {"measurement": "% Lowering Ducitol Accumulation In vivo, Lens", "setting": "[2]; 25 mg/kg", "value": 24, "unit": "%"}, {"measurement": "% Lowering Ducitol Accumulation In vivo, Lens", "setting": "[2]; 86.1 mg/kg", "value": 55, "unit": "%"}, {"measurement": "% Lowering Ducitol Accumulation In vivo, Nerve", "setting": "[3]; 25 mg/kg", "value": 53, "unit": "%"}, {"measurement": "% Lowering Ducitol Accumulation In vivo, Nerve", "setting": "[3]; 86.1 mg/kg", "value": 81, "unit": "%"}]}
{"compound": "COC(=O)NC(=O)CC1C(=O)N(Cc2ccc(Br)cc2F)C(=O)c2ccc(F)cc21", "note": "(stereo not shown) [[[2-[(4-Bromo-2-fluorophenyl)methyl]-6-fluoro-1,2,3,4-tetrahydro-1,3-dioxo-4-isoquinolinyl]acetyl]carbamic Acid Methyl Ester]", "values": [{"measurement": "inhibition at 10 µM", "setting": "[1]", "value": 55, "unit": "%"}, {"measurement": "inhibition at 1 µM", "setting": "[1]", "value": 18, "unit": "%"}, {"measurement": "% Lowering Ducitol Accumulation In vivo, Nerve", "setting": "[3]; 26 mg/kg", "value": 78, "unit": "%"}]}
{"compound": "CCOC(=O)NC(=O)CC1C(=O)N(C)C(=O)c2ccc(Cl)cc21", "note": "(stereo not shown) [-6Cl, H, CH3, NHCO2 C2 H5, [(6-chloro-1,2,3,4-tetrahydro-2-methyl-1,3-dioxo-4-isoquinolinyl)acetyl]carbamic acid ethyl ester]", "values": [{"measurement": "inhibition at 10 µM", "setting": "[1]", "value": 14.5, "unit": "%"}, {"measurement": "% Lowering Ducitol Accumulation In vivo, Nerve", "setting": "[3]; 24.5 mg/kg", "value": 34, "unit": "%"}]}
{"compound": "COC(=O)NC(=O)CC1C(=O)N(C)C(=O)c2cc(Cl)ccc21", "note": "(stereo not shown) [7Cl, CH3, NHCO2 CH3, [(7-chloro-1,2,3,4-tetrahydro-2-methyl-1,3-dioxo-4-isoquinolinyl)acetyl]carbamic acid methyl ester]", "values": [{"measurement": "inhibition at 10 µM", "setting": "[1]", "value": 50, "unit": "%"}, {"measurement": "inhibition at 1 µM", "setting": "[1]", "value": 17, "unit": "%"}, {"measurement": "% Lowering Ducitol Accumulation In vivo, Nerve", "setting": "[3]; 24.3 mg/kg", "value": 28, "unit": "%"}]}
{"compound": "O=C(O)CC1C(=O)N(Cc2ccc(Br)cc2F)C(=O)c2ccc(F)cc21", "note": "(stereo not shown) [2-[(4-Bromo-2-fluorophenyl)methyl]-6-fluoro-1,2,3,4-tetrahydro-1,3-dioxo-4-isoquinolineacetic Acid]", "values": [{"measurement": "inhibition at 0.04 µM", "setting": "[1]", "value": 80, "unit": "%"}, {"measurement": "inhibition at 10 µM", "setting": "[1]", "value": 96, "unit": "%"}, {"measurement": "inhibition at 1 µM", "setting": "[1]", "value": 91, "unit": "%"}, {"measurement": "inhibition at 0.1 µM", "setting": "[1]", "value": 86, "unit": "%"}, {"measurement": "% Lowering Ducitol Accumulation In vivo, Nerve", "setting": "[3]; 25 mg/kg", "value": 47, "unit": "%"}]}
{"compound": "COC(=O)NC(=O)CC1C(=O)N(C)C(=O)c2ccccc21", "note": "(stereo not shown) [H, H, CH3, NHCO2 CH3, [(1,2,3,4-Tetrahydro-2-methyl-1,3-dioxo-4-isoquinolinyl)acetyl]carbamic Acid Methyl Ester]", "values": [{"measurement": "inhibition at 10 µM", "setting": "[1]", "value": 61, "unit": "%"}, {"measurement": "% Inhibition in vitro", "setting": "[1]; 10^- M (exponent not given)", "value": 11, "unit": "%"}, {"measurement": "% Lowering Ducitol Accumulation In vivo, Lens", "setting": "[2]; 85.0 mg/kg", "value": 37.2, "unit": "%"}, {"measurement": "% Lowering Ducitol Accumulation In vivo, Nerve", "setting": "[3]; 26.8 mg/kg", "value": 21.2, "unit": "%"}, {"measurement": "% Lowering Ducitol Accumulation In vivo, Nerve", "setting": "[3]; 85.0 mg/kg", "value": 58.6, "unit": "%"}]}
{"compound": "O=C(O)CC1C(=O)N(Cc2ccc(Br)cc2F)C(=O)c2ccccc21", "note": "(stereo not shown) [2-[(4-Bromo-2-fluorophenyl)methyl]-1,2,3,4-tetrahydro-1,3-dioxo-4-isoquinolineacetic Acid]", "values": [{"measurement": "inhibition at 0.04 µM", "setting": "[1]", "value": 50, "unit": "%"}, {"measurement": "inhibition at 10 µM", "setting": "[1]", "value": 94, "unit": "%"}, {"measurement": "inhibition at 1 µM", "setting": "[1]", "value": 91, "unit": "%"}, {"measurement": "inhibition at 0.1 µM", "setting": "[1]", "value": 88, "unit": "%"}]}
